Experiments:
[1] = In vitro Rhodamine release (dialysis bag, phosphate buffer); assay type: physicochemical; settings: 37° C.
Procedure: The in vitro Rhodamine release profiles from the (-PLA-PEG-PLA-)n multiblock NS were determined as follows: NS were precisely weighed and suspended in 10 ml of phosphate buffer solution. The NS suspension was introduced into a dialysis membrane bag (Spectra/por™, Molecular weight cut off: 2000-4000, Spectrum Medical Industries, Inc., CA, USA) that was placed in 150 ml of phosphate buffer. This solution was stirred at 37° C. At pre-determined time intervals, 3 ml aliquots of the release medium were withdrawn from the release medium. The release of Rhodamine was monitored using a spectrofluorometer at an excitation wavelength of […] and emission wavelength of 554 nm. The sample was replaced in the release medium. The samples were analyzed by fluorescence since sensitivity will be needed for the incoming blood samples analysis.

[2] = lifetime of free rhodamine; cited from earlier work
[3] = Organ distribution by fluorescence microscopy; assay type: in vivo; settings: rats, after IV injection of nanospheres containing rhodamine, image analysis
Procedure: 0.5 ml was taken at each time step. Plasma levels of rhodamine were measured by fluorescence detection. […] Organs were examined by fluorescence microscopy.

In the case of `CCN(CC)c1ccc2c(-c3ccccc3C(=O)O)c3ccc(=[N+](CC)CC)cc-3oc2c1` [Rhodamine, Rhodamine B], the time of release [1] is listed as ≤ 30 min, the “t1/2 in the body” value [2] is listed as 3 h and the “Rhodamine accumulation in the organs” value [3] is listed as “No Rhodamine accumulation”.

From US20060165987A1, “Stealthy polymeric biodegradable nanospheres and uses thereof” (priority 2002, published 2006)
